{"source": "patent US20250228834A1", "about": "“PHARMACEUTICAL COMPOSITION FOR THE TREATMENT OF COLON AND LUNG CANCER” (HEPAREGENIX GMBH, priority 2022, published 2025)", "type_in_all_cases": "cell-based", "key": {"[1]": {"tested_on": "Lung Cancer Cells", "experiment": "IncuCyte proliferation assay (Assay Method C), confluence", "description": "(§1) All cell lines were cultured in RPMI 1640 medium (Gibco) supplemented with 10% fetal bovine serum, 1% glutamine and penicillin-streptomycin (Gibco) at 37° C. and 5% CO2. Mycoplasma contamination was excluded via a PCR-based method.\nDrugs were refreshed twice a week."}, "[2]": {"tested_on": "KRASG12C mutant lung cancer cells (H358, H2122)", "experiment": "Colony formation matrix (Assay Method A), Example 3", "settings": "10 days, FIG. 3", "description": "(§2) • KRAS mutant lung and colorectal cancer cells: • Lung: H358 (G12C) (ATCC No: CRL-5807) • H2122 (G12C) (ATCC No: CRL-5985) • Colon:DLD1 (G13D) (ATCC No: CCL-221) • HCT 116 (G13D) (ATCC No: CCL-247)\nas §1\n(§3) Cell lines were cultured and seeded into 24-well plates. After 24 h incubation, drugs were added using the HP D300 Digital Dispenser. Medium and drugs were refreshed twice a week for 10-14 days. After this, cells were fixed with 4% formaldehyde in PBS and stained with 0.1% crystal violet in water. The quantification of the colony formation matrixes (crystal violet staining per well) was assessed using ImageJ software.\nAccording to Assay Method A cells (H358, H2122) were treated with compound (A), AMG510 or their combination at the indicated concentrations (cf. FIG. 3). Drugs were refreshed twice a week. The cells were fixed and stained after 10 days."}, "[3]": {"tested_on": "KRAS mutant lung and colorectal cancer cells (H358, H2122, DLD1, HCT 116)", "experiment": "Colony formation matrix (Assay Method A)", "description": "as §2, §1, §3\nAccording to Assay Method A cells (H358, H2122, DLD1, HCT 116) were treated with compound (A), Trametinib or their combination at the indicated concentrations (cf. FIG. 1). Drugs were refreshed twice a week. The cells were fixed and stained after 10 days.\nAccording to Assay Method A cells (H358, DLD1, HCT 116) were treated with compound (A), SCH772984 or their combination at the indicated concentrations (cf. FIG. 2). Drugs were refreshed twice a week. The cells were fixed and stained after 10 days."}, "[4]": {"tested_on": "Lung Cancer Cells", "experiment": "IncuCyte Caspase 3/7 apoptosis assay (Assay Method C)", "settings": "compound (A) in combination with Trametinib, RMC4550 or AMG510; first 72 hours; FIG. 5B", "description": "as §1\nFor IncuCyte proliferation assays and Caspase 3/7 assays, cells were seeded in 96-well plates. After 24 h incubation, drugs and the IncuCyte® Caspase-3/7 green apoptosis assays reagent (Essen Bioscience 4440) were added using the HP D300 Digital Dispenser and the plates were placed in the IncuCyte®. Culture media and drugs were refreshed twice a week for 10 days. Cells were imaged every 4 hours in the IncuCyte ZOOM (Essen Bioscience). Phase-contrast images were collected and analyzed to detect cell proliferation based on cell confluence. Apoptosis was measured based on green fluorescent staining of apoptotic cells using the IncuCyte® Caspase-3/7 green apoptosis assay reagent (Essen Bioscience 4440).\nAccording to assay method C cells were treated with compound (A) as component a) and RMC4550, AMG510, or Trametinib as component b) or combinations of component a) and either one of component b) at the indicated concentrations. Additionally, during the first treatment, the IncuCyte® Caspase-3/7 green apoptosis assay reagent was added to measure apoptosis for the first 72 hours. […] Confluence (left) and Caspase 3/7 activity was measured by the IncuCyte®. […]"}, "[5]": {"tested_on": "KRAS G12C mutant cancer cell line H358", "experiment": "Colony formation matrix (Assay Method A), Example 4", "settings": "compound (A) combined with RMC4550, 10 days, FIG. 4", "description": "as §2, §1, §3\nAccording to Assay Method A H358 cells were treated with compound (A), RMC4550 or their combination at the indicated concentrations (cf. FIG. 4). Drugs were refreshed twice a week. The cells were fixed and stained after 10 days."}}}
{"smiles": "CCCS(=O)(=O)Nc1c(F)ccc(C(=O)c2c[nH]c3ncc(-c4cnc(C5CC5)nc4)cc23)c1F", "note": "[compound (A), N-(3-(5-(2-cyclopropyl-pyrimidin-5-yl)-1H-pyrrolo[2,3-b]pyridine-3-carbonyl)-2,6-difluorophenyl)-propane-1-sulfonamide]", "values": [{"measurement": "cell proliferation (confluence)", "setting": "[1]; compound (A) in combination with Trametinib, RMC4550 or AMG510, FIG. 5A", "value": "Abrogates Cell Proliferations"}, {"measurement": "synergistic effect of combination (confluence and Caspase 3/7 activity)", "setting": "[1]; compound (A) with MEK, SHP2 and KRASG12C inhibitors, example 5, FIGS. 5A and 5B", "value": "synergistic effect"}, {"measurement": "toxicity compared to the single agent effect of AMG510", "setting": "[2]; addition of compound (A) to AMG510, KRAS G12C mutants H358, H2122", "value": "strongly increased the toxicity"}, {"measurement": "synergy with AMG510 in colony formation matrix", "setting": "[2]; compound (A) combined with AMG510, H358, H2122", "value": "strong synergy"}, {"measurement": "synergy with MEK, ERK, KRAS and SHP2 inhibition, overall conclusion", "setting": "[3]; compound (A) combined with MEK, ERK, KRAS or SHP2 inhibitor, all obtained results", "value": "strongly synergizes"}, {"measurement": "synergy with ERK inhibition in colony formation matrix", "setting": "[3]; compound (A) combined with SCH772984, H358, DLD1, HCT 116, 10 days, FIG. 2", "value": "Synergizes"}, {"measurement": "toxicity in colony formation matrix, single drug", "setting": "[3]; single drug, KRAS mutant cancer cells (H358, H2122, DLD1, HCT 116), fixed and stained after 10 days, FIG. 1", "value": "did not show sensitivity"}, {"measurement": "apoptosis (Caspase 3/7 activity)", "setting": "[4]", "value": "Induces Apoptosis"}, {"measurement": "synergy with SHP2 inhibition in colony formation matrix", "setting": "[5]", "value": "Synergizes"}]}
